Experimental data published in patent US9861606B2, “Therapeutic for treating inflammatory lung disorders” (University College Cardiff Consultants Limited, priority 2012, dated 2018).

Assays:
human CaSR = target: T1, human CaSR (Homo sapiens, UniProt P41180); assay: Intracellular Ca2+ (fura-2, F/F0) in HEK293 cells stably expressing human CaSR; format: cell-based; conditions: HEK-CaSR; for CaSR activation (Ca2+i increase) by agonist: 300 nM poly-L-arginine, 1 mM spermine, 10 μg/ml ECP, no response in HEK-0
T1 construct: expressed in transfected cells; control HEK-0 with empty vector
T1 sequence (P41180 20-1078): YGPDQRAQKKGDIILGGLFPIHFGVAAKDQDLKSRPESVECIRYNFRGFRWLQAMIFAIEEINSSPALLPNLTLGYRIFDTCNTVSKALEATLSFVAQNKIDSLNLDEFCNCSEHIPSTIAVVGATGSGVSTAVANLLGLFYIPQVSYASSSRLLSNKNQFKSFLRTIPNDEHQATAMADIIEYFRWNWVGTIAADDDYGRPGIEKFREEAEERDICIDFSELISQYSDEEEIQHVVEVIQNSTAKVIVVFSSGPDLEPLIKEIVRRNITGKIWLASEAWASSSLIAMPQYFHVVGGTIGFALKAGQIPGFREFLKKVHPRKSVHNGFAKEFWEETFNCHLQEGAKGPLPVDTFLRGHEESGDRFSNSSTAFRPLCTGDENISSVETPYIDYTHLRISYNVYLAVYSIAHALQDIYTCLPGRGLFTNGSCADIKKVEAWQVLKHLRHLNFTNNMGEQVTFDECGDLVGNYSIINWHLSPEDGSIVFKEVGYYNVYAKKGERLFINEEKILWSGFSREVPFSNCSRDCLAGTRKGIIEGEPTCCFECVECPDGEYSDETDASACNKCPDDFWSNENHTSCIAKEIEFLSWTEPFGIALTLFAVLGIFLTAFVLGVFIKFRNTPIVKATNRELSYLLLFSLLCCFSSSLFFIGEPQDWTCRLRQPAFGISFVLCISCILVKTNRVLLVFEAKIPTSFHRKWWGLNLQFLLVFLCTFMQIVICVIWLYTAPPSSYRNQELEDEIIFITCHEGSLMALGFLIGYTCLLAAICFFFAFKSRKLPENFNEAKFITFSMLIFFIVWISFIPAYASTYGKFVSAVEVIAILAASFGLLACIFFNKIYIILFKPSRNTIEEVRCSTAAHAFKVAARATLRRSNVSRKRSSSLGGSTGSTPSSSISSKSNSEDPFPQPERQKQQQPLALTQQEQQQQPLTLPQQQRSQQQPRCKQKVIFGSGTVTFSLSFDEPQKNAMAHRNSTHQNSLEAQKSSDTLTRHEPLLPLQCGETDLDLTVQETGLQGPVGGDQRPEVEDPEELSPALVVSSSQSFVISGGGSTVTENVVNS
Procedure: The structurally unrelated calcilytic NPS2143 also prevents spermine-induced CaSR activation (D). […] Note that ECP serum concentrations in asthmatic subjects are believed to be 30 μg/ml. n=121-487 cells, 3-9 experiments. Data are mean±SEM. Where differences are significant, they are shown above the bars. FIG. 6. Ca^2+o activates the CaSR, an effect which can be prevented by the calcilytic NPS89636. HEK293 cells stably expressing the human CaSR (HEK-CaSR) or transfected with empty vector (HEK-0) were loaded with 4 μM fura-2 AM and exposed to 5 mM Ca^2+o in the absence or presence of the calcilytic, NPS89636 (100 nM). Data are from >3 experiments and 121-386 cells. Significant differences are shown above the bars. […] The ability of a structurally unrelated calcilytic, NPS2143 (1-10 μM), was also tested on spermine-induced Ca^2+i mobilisation in HEK-CaSR. Ca^2+i release was measured as peak/baseline fluorescence (F/F0). Note that ECP serum concentrations in asthmatic subjects increase with disease severity and are believed to reach 30 μg/ml.

[1] = test system: mouse intralobular bronchi; conditions: spermine 10 μM-3 mM cumulative, ACh-precontracted to ~50% tone
Procedure: A. Intralobular bronchi were dissected from wild type C57/Bl6 mice (3-4 month of age), mounted upon a wire myograph and bubbled with 95% O2/5% CO2 in the presence of an extracellular solution containing 1 mM Ca^2+o. […] Data are mean±SEM, n=3. B. Intralobular bronchi were dissected from wild type (sm22α-Cre^−/−/floxed-CaSR^+/+) and CaSR knockout (sm22α-Cre^+/+/floxed-CaSR^+/+) mice and were then mounted on a wire myograph, as described in (A). […] Percentage of contraction (upwards deflection from zero of the relaxation curve) or relaxation (downwards deflection from zero of the relaxation curve) were calculated from the tension data. Data are mean±SEM, n=3 per genotype. […] Second/third order intralobular bronchi were dissected from the lung left lobe of WT or CaSR KO mice, mounted in small vessel myograph using stainless steel wires (d=40 micrometers) in a Krebs' solution bubbled with 95% O2/5% CO2. Bronchi were left to settle at 37° C. for 30 min, then gradually stretched to reach 2 mN of passive tension. After 30 min of equilibration time, the reactivity of the bronchi was tested by addition of 40 mM KCl to the bath. […] Data are shown as mean±SEM percentage change from baseline, where upwards deflection from zero represents contraction, whilst downwards deflection from zero of the relaxation curve represents relaxation. […] WT: n=6; KO: n=7. *p<0.05; **p<0.01.

[2] = test system: mouse intralobular bronchi; conditions: 300 μM spermine, 15 min pre-treatment
Procedure: A. Intralobular bronchi were dissected from wild type C57/Bl6 mice (3-4 month of age), mounted upon a wire myograph and bubbled with 95% O2/5% CO2 in the presence of an extracellular solution containing 1 mM Ca^2+o. […] Data are mean±SEM, n=3. B. Intralobular bronchi were dissected from wild type (sm22α-Cre^−/−/floxed-CaSR^+/+) and CaSR knockout (sm22α-Cre^+/+/floxed-CaSR^+/+) mice and were then mounted on a wire myograph, as described in (A). […] Percentage of contraction (upwards deflection from zero of the relaxation curve) or relaxation (downwards deflection from zero of the relaxation curve) were calculated from the tension data. Data are mean±SEM, n=3 per genotype. […] Second/third order intralobular bronchi were dissected from the lung left lobes of WT or KO mice, mounted in small vessel myograph using stainless steel wires (d=40 micrometers) and maintained in a Krebs solution bubbled with 95% O2/5% CO2. Bronchi were left to settle at 37° C. for 30 min, then they were gradually stretched to reach 2 mN of passive tension. After 30 min equilibration time, reactivity of the bronchi was tested by addition of 40 mM KCl to the bath. […] Data are shown as mean±SEM percentage of contraction normalized to the maximal contraction in control. […] Bronchi were left to settle at 37° C. for 30 min, then they were gradually stretched to reach 2 mN of passive tension. […]

CaSR in human ASM cells = target: T2, CaSR in human ASM cells (Homo sapiens, UniProt P41180); assay: Intracellular Ca2+ signalling (Fura-2) in primary human airway smooth muscle cells; format: cell-based; conditions: spermine 0.1-3 mM; ECPs 1-10 micrograms/ml
T2 construct: endogenous in cells; host or cells: primary human airway smooth muscle cells explanted from bronchial biopsies
T2 sequence (P41180 20-1078): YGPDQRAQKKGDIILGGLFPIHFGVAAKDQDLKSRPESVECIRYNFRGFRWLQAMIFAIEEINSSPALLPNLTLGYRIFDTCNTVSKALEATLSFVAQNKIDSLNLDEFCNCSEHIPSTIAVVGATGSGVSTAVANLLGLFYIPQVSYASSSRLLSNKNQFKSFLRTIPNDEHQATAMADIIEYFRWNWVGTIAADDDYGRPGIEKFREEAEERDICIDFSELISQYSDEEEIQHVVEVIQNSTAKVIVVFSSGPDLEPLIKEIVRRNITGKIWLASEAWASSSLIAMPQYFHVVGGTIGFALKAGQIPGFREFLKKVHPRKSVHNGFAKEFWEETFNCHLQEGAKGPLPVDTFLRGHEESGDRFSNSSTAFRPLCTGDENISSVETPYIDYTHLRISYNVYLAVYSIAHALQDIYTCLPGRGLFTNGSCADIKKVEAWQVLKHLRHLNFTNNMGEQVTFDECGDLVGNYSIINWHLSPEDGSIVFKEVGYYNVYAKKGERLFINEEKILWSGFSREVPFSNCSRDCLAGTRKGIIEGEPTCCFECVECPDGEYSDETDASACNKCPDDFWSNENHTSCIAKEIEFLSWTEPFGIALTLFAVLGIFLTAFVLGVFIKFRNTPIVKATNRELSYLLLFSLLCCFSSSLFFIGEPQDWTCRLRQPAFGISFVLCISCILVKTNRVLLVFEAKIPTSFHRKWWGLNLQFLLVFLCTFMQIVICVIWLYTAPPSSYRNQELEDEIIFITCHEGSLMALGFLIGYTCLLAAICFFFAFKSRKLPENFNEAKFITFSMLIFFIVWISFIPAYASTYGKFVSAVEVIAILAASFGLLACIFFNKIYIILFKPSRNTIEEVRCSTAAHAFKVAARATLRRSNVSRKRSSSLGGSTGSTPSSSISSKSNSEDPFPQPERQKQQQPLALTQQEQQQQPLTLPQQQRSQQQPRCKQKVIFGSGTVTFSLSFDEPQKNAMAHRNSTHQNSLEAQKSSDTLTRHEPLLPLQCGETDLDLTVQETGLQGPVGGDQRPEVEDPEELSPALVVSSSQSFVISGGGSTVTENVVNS
Procedure: Human ASM cells, loaded with Fura-2 AM, show elevation of [Ca^2+]i (F/F0) when exposed to increased [Ca^2+]o (A, n=7) or spermine (B, n=35; mean±SEM). […] In the presence of 5 mM [Ca^2+]o (saturating for CaSR, see A), the response to ECP, but not to BK, is ablated, consistent with CaSR activation by ECP. D), transfection of a “dominant negative” CaSR (CaSR DN) prevents spermine-dependent increase in [Ca^2+]i in human ASM cells, an effect which cannot be seen in MOCK-transfected cells.
Effects of Polycations in Human ASM Cells In Vitro
Once primary human airway smooth muscle cells cell cultures were established at 80-90% confluence using the protocol described above, the endogenous CaSR was activated by exposing these cells to pathophysiologically relevant concentrations of ECPs (1-10 micrograms/ml), spermine (0.1-3 mM) and Ca^2+o (1-5 mM) to determine the effects on intracellular Ca^2+i signalling (using the Ca^2+-sensitive fluorescent dye, Fura-2).

BalbC mice = assay: Polycation-induced bronchial hyper-reactivity (Penh, plethysmography) in methacholine-challenged conscious mice; format: in vivo, mouse; conditions: nebulised poly-L-arginine 3 μM, 1 hour; conscious BalbC mice
Procedure: FIG. 5. […] prevent polycation-evoked BHR in methacholine-challenged mice. […] After the treatment, animals were placed in plethysmography chambers (Buxco, USA), allowed to settle for 10 minutes, and then they were challenged with methacholine (MCh, 0.1-10 mg/ml). Responses to methacholine obtained from the animals that have not received any treatments are shown in black symbols. From our previous estimates, 1-5% of the nebulised drug reaches the lung epithelium. […] FIG. 12. […] Male BalbC mice ( 25 g) were purchased from Harlan 1 week before the experimental protocols were performed. […] On the day of the experiment, the body weight of each mouse was recorded and mice were allowed to acclimatise to the chamber for at least 10 min before recordings were made. Then, respiratory activity was recorded for 5 min, to establish baseline value for Penh. […] Data were recorded for 3 minutes after each aerosol administration. The Penh values at each MCh concentration were averaged and expressed as a proportion of baseline Penh (Penh before treatment). […] The Penh values at each MCh concentration were averaged and expressed as a proportion of that day's baseline Penh (Penh after treatment). […] Effect of Polycations and of the Calcilytic NPS89636 on Bronchial Hyper-Reactivity in Unrestrained, Conscious Mice In Vivo Baseline airway hyper-responsiveness was measured by plethysmography. […]

## CC(C)(Cc1ccc2ccccc2c1)NC[C@@H](O)COc1cccc(Cl)c1C#N.Cl [NPS2143, reference compound]
Human CaSR; 1-10 μM calcilytic
  Effect of calcilytic on spermine-induced CaSR activation (Ca2+i mobilisation): prevented CaSR activation by spermine

## NCCCNCCCCNCCCN [spermine]
[1]; knock-out mice
  Direct bronchoconstriction, CaSR KO bronchi: not in the intralobular bronchi of knock-out mice
[1]; wild-type mice
  Direct bronchoconstriction, WT bronchi: directly evokes bronchoconstriction
Human CaSR
  CaSR activation (Ca2+i increase) by agonist: responds
[2]; CaSR knock-out mice
  Effect on ACh-induced contraction, CaSR KO bronchi: not seen
[2]; wild-type mice
  Effect on ACh-induced contraction, WT bronchi: increases the response to acetylcholine-mediated contraction
CaSR in human ASM cells
  Increase in Ca2+i evoked by agonist in human ASM cells: evoke increases in Ca^2+i

## poly-L-arginine [reference compound]
BalbC mice
  Effect on response to methacholine (Penh): significantly enhanced
Human CaSR
  CaSR activation (Ca2+i increase) by agonist: responds

B1: ECPs: eosinophil cationic protein, novel agonist at the human CaSR (protein, UniProt P12724 28-160, looked up)
Eosinophil cationic protein: RPPQFTRAQWFAIQHISLNPPRCTIAMRAINNYRWRCKNQNTFLRTTFANVVNVCGNQSIRCPHNRTLNNCHRSRFRVPLLHCDLINPGAQNISNCTYADRPGRRFYVVACDNRDPRDSPRYPVVPVHLDTTI
Human CaSR
  CaSR activation (Ca2+i increase) by agonist: agonists at the CaSR
CaSR in human ASM cells
  Increase in Ca2+i evoked by agonist in human ASM cells: evoke increases in Ca^2+i
